Values quoted from earlier work in patent US7094421B2, “Plaster containing 4-biphenylacetic acid” (Teikoku Seiyaki Co., Ltd., priority 2000, dated 2006).

Conditions: solvent crotamiton

## O=C(O)Cc1ccc(-c2ccccc2)cc1 [4-biphenylacetic acid]
  solubility of 4-biphenylacetic acid in crotamiton: about 7%
